The numbers were not newly measured in patent US5798350A, “Dopamine receptor ligands” (Allelix Biopharmaceuticals, Inc., priority 1996, dated 1998), which cites them from elsewhere.

The data set deals with D4 receptor. Particulars: background, cited from earlier work.

Consider `CN1CCN(C2=Nc3cc(Cl)ccc3Oc3ccccc32)CC1` [isoloxapine], for which the “preference for binding the D4 receptor relative to the D2 receptor” value is reported as “about 10 fold”. For the same compound, the Ki (read-out: Ki value (D4 affinity)) was about 20 nM.
